Target: TNFα trimer (Homo sapiens, UniProt P01375)
Assay: TNFα FP Competitive Binding Assay
Details: FP binding assay; 20 nM TNFα trimer, 1 nM OregonGreen488 probe; read-out: TNF IC50
Procedure: TNFα FP Competitive Binding Assay
• 1. Assay Buffer: Prepare 1× Assay Buffer (Water with 47 mM HEPES, 47 mM NaCl, 0.9 mM EDTA, 0.0071% Triton X-100) by adding 25 mL of 1 M HEPES, 5 mL of 5 M NaCl, 1 mL of 0.5 M EDTA, and 375 μL of a 10% Triton X-100 stock to a fresh 500 mL bottle of water. • 2. Assay Mixture: Prepare fresh Assay Mixture containing 20 nM TNFα trimer (60 nM protein) and 1 nM 2′,7′-difluoro-3′,6′-dihydroxy-N-(2-(2-(2-((4-(isoquinolin-8-yl)-3-(4-(isoquinolin-8-yl)phenethoxy)benzyl)oxy)ethoxy)ethoxy)ethyl)-3-oxo-3H-spiro[isobenzofuran-1,9′-xanthene]-5-carboxamide probe in 1× Assay Buffer. Compound Plate Preparation Manual 12-Point 1:3 Dilution Plates: (384 Well Polypropylene Plates)
Top concentration of compounds, 10 mM in DMSO, dispensed in rows A-O in columns 1 and 13. Compounds are serially diluted 1:3 with DMSO in columns 2-12 or 14-24 using a 16-channel Matrix pipettor. Plates stored at −20° C.
Discovery Preps 12-Point 1:3 Dilution Plates: (384 Well Assay Plates)
Top concentration, 5 mM in DMSO, of compounds placed in rows A-O in columns 1 and 13. Compounds are serially diluted 1:3 with DMSO in columns 2-12 or 14-24. Compound solutions are dispensed into replicate assay plates at 410 nL per well. Plates stored at 4° C.
TNFα FP Competitive Binding Assay Protocol
• 1. Compound plates warmed to rt. • 2. Fresh Assay Mixture is prepared. • 3. Assay Mixture (20 μL) is dispensed each well of 384 assay plates using a Thermo Multidrop Combi or 16-channel Matrix pipettor. If Manual 12-point 1:3 Dilution Plates are to be tested, Assay Mix is dispensed into empty plates. Discovery Preps 12-point 1:3 Dilution Plates already contain 410 nL compound solution in DMSO. • 4. For Manual 12-point 1:3 Dilution Plates, 0.7 μL is manually transferred using a 16-channel Matrix pipettor to replicate assay plates containing 20 μL Assay Mixture for a final top compound concentration of 338 μM (3.4% DMSO). • 5. For Discovery Preps 12-point 1:3 Dilution Plates, 20 μL Assay Mixture added the 410 nL compound solution already in the plates yields a final top compound concentration of 100 μM (2.0% DMSO). • 6. Background subtraction controls are wells P1-P8 containing only Assay Buffer. The low % inhibition controls are wells P9-P16 containing only Assay Mix. The high % inhibition are wells P17-P24 containing only 1 nM 2′,7′-difluoro-3′,6′-dihydroxy-N-(2-(2-(2-((4-(isoquinolin-8-yl)-3-(4-(isoquinolin-8-yl)phenethoxy)benzyl)oxy)ethoxy)ethoxy)ethyl)-3-oxo-3H-spiro[isobenzofuran-1,9′-xanthene]-5-carboxamide probe in 1× Assay Buffer. • 7. Plates are incubated at rt for 18-24 h in 37° C. incubator (CO2 is off). • 8. Prior to reading the assay, the plates are placed in a dark cabinet to equilibrate at rt for one hour. • 9. Background-subtracted fluorescence polarization (mP) is measured using a PerkinElmer Envision plate reader. • 10. Raw data is entered into Assay Explorer and dose-response curves are generated using a variable slope curve. Supplies, Materials, and Reagents

Chain of TNFα trimer (P01375 77-233 limits assumed): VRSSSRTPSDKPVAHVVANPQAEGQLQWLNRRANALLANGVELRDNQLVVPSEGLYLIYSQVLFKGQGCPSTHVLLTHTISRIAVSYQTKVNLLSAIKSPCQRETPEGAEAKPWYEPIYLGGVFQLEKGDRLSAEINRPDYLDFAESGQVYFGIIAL

| SMILES | IC50 [nM] |
| --- | --- |
| Cc1ccc(OC(F)F)c(Cn2c3cc(-c4cnc(N5CCN(C(=O)[C@H](C)N)[C@H](C)C5)nc4)ccc3c(=O)n2C)c1 [Example 14.11] | < 1000 |
| Cn1c(=O)c2ccc(-c3cnc(N4CCOCC4)nc3)cc2n1C(=O)c1ccccc1OC(F)F [Example 1.7] | > 10000 |
| CC(=O)N1CCN(c2ncc(-c3ccc4c(=O)n(C)n(Cc5cc(C)ccc5OC(F)F)c4c3)cn2)C[C@H]1C (single isomer, unassigned) [Example 54] | < 1000 |
| Cn1c(=O)c2cc(F)c(-c3cnc(C(C)(C)O)nc3)cc2n1Cc1cc(Cn2cncn2)ccc1OC(F)F [Example 26.4] | < 1000 |
| COC(=O)NCc1ccc(OC(F)F)c(Cn2c3cc(-c4cnc(N5CCN(C(C)=O)[C@H](C)C5)nc4)ccc3c(=O)n2C)c1 [Example 27.2] | < 1000 |
| Cn1c(=O)c2ccc(-c3cnc(NC4CCNC4=O)nc3)cc2n1Cc1cc(CO)ccc1OC(F)F (stereo not drawn) [Example 16.6] | 1000 to 10000 |
| CC(=O)N1CCN(c2ncc(-c3ccc4c(=O)n(C)n(Cc5cccc6c5SCC(=O)NC6)c4c3)cn2)C[C@H]1C [Example 52, (R)-9-((6-(2-(4-Acetyl-3-methylpiperazin-1-yl)pyrimidin-5-yl)-2-methyl-3-oxo-2,3-dihydro-1H-indazol-1-yl)methyl)-4,5-dihydrobenzo[f][1,4]thiazepin-3(2H)-one] | 1000 to 10000 |
| Cc1cccc([C@H](C)n2c3cc(-c4cnc(N5CCN(C(=O)CO)[C@H](C)C5)nc4)ccc3c(=O)n2C)c1 (single isomer, unassigned) [Example 117] | < 1000 |
| C[C@@H]1CN(c2ncc(-c3ccc4c(=O)n(C)n(Cc5ccccc5Cl)c4c3F)cn2)CCN1C(=O)CO [Example 24.5] | < 1000 |
| CCN(Cc1ccc(OC(F)F)c(Cn2c3cc(-c4cnc(N5CCN(C(C)=O)[C@H](C)C5)nc4)ccc3c(=O)n2C)c1)C(C)=O [Example 94, (R)—N-(3-((6-(2-(4-Acetyl-3-methylpiperazin-1-yl)pyrimidin-5-yl)-2-methyl-3-oxo-2,3-dihydro-1H-indazol-1-yl)methyl)-4-(difluoromethoxy)benzyl)-N-ethylacetamide] | 1000 to 10000 |
| Cn1c(=O)c2ccc(-c3cnc(N4CCN5C(=O)NC[C@H]5C4)nc3)cc2n1Cc1cc(Cn2cnnc2)ccc1OC(F)F [Example 93, (S)-7-(5-(1-(5-((4H-1,2,4-triazol-4-yl)methyl)-2-(difluoromethoxy)benzyl)-2-methyl-3-oxo-2,3-dihydro-1H-indazol-6-yl)pyrimidin-2-yl)hexahydroimidazo[1,5-a]pyrazin-3(2H)-one] | < 1000 |
| Cn1c(=O)c2ccc(-c3cnc(C4(O)CCN(C=O)CC4)nc3)cc2n1Cc1ccccc1OC(F)F [Example 20, 4-(5-(1-(2-(Difluoromethoxy)benzyl)-2-methyl-3-oxo-2,3-dihydro-1H-indazol-6-yl)pyrimidin-2-yl)-4-hydroxypiperidine-1-carbaldehyde] | 1000 to 10000 |
| COCC(=O)N1CCN(c2ncc(-c3ccc4c(=O)n(C)n(Cc5cc(C)ccc5OC(F)F)c4c3)cn2)C[C@H]1C [Example 21.1] | < 1000 |
| Cn1c(=O)c2ccc(-c3nsc(N4CCOCC4)n3)cc2n1Cc1ccccc1OC(F)F [Example 10.5] | > 10000 |
| CC(C)[C@H](N)C(=O)OCc1ccc(OC(F)F)c(Cn2c3cc(-c4cnc(N5CCN6C(=O)OC[C@@H]6C5)nc4)ccc3c(=O)n2C)c1 [Example 14.4] | 1000 to 10000 |
| Cc1ccc(OC(F)F)c(Cn2c3cc(-c4cnc(N5CCN(C(=O)COC(=O)[C@@H](N)C(C)C)[C@H](C)C5)nc4)ccc3c(=O)n2C)c1 [Example 14.14] | < 1000 |
| C[C@@H]1CN(C(=O)CO)CCN1c1ncc(-c2ccc3c(=O)n(C)n(Cc4cc(CC#N)ccc4OC(F)F)c3c2)cn1 [Example 78, (R)-2-(4-(difluoromethoxy)-3-((6-(2-(4-(2-hydroxyacetyl)-2-methylpiperazin-1-yl)pyrimidin-5-yl)-2-methyl-3-oxo-2,3-dihydro-1H-indazol-1-yl)methyl)phenyl)acetonitrile] | < 1000 |

Next, values leading:

| IC50 [nM] | SMILES |
| --- | --- |
| < 1000 | Cc1ccc(OC(F)F)c(Cn2c3cc(-c4cnc(N5CCN6C(=O)OC[C@@H]6C5)nc4)ccc3c(=O)n2C)c1 [Example 20.2] |
| < 1000 | Cn1c(=O)c2ccc(-c3cnc(N4CCOC(C)(C)C4)nc3)cc2n1Cc1ccccc1OC(F)F [Example 2, 1-(2-(Difluoromethoxy)benzyl)-6-(2-(2,2-dimethylmorpholino)pyrimidin-5-yl)-2-methyl-1H-indazol-3(2H)-one] |
| 1000 to 10000 | CC(Nc1ncc(-c2ccc3c(=O)n(C)n(Cc4ccccc4OC(F)F)c3c2)cn1)C(N)=O (stereo not drawn) [Example 10.4] |
| < 1000 | CC(C)[C@H](N)C(=O)OCc1ccc(OC(F)F)c(Cn2c3cc(-c4cnc(N5CCN6C(=O)NC[C@@H]6C5)nc4)ccc3c(=O)n2C)c1 [Example 14.16] |
| 1000 to 10000 | Cn1cc(C(F)(F)F)c(Cn2c3cc(-c4cnc(N5CCN6C(=O)NC[C@H]6C5)nc4)ccc3c(=O)n2C)n1 [Example 72, (S)-7-(5-(2-methyl-1-((1-methyl-4-(trifluoromethyl)-1H-pyrazol-3-yl)methyl)-3-oxo-2,3-dihydro-1H-indazol-6-yl)pyrimidin-2-yl)hexahydroimidazo[1,5-a]pyrazin-3(2H)-one] |
| < 1000 | Cc1ccc(OC(F)F)c(Cn2c3cc(-c4cnc(N5CCN(C(=O)CO)C[C@H]5C)nc4)ccc3c(=O)n2C)c1 [Example 22.4] |
| 1000 to 10000 | CC(=O)N1CCN(c2ncc(-c3ccc4c(=O)n(C)n(Cc5cc(CN6CCN(C)C6=O)ccc5OC(F)F)c4c3)cn2)C[C@H]1C [Example #129*, (R)-6-(2-(4-Acetyl-3-methylpiperazin-1-yl)pyrimidin-5-yl)-1-(2-(difluoromethoxy)-5-((3-methyl-2-oxoimidazolidin-1-yl)methyl)benzyl)-2-methyl-1H-indazol-3(2H)-one] |
| < 1000 | Cc1nc(N2CCN(C(=O)CO)C[C@H]2C)ncc1-c1ccc2c(=O)n(C)n(Cc3ccccc3OC(F)F)c2c1 [Example 10.10] |
| 1000 to 10000 | Cc1ccc(OC(F)F)c(Cn2c3cc(-c4cnc(N5C[C@@H]6CNC(=O)[C@@H]6C5)nc4)ccc3c(=O)n2C)c1 (racemic) [Example 20.3] |
| > 10000 | O=c1[nH]n(Cc2cc(Cl)ccc2Cl)c2cc(-c3cnc(N4CCOCC4)nc3)ccc12 [Example 9.1] |
| < 1000 | Cn1c(=O)c2ccc(-c3cnc(NC4CCNC(=O)C4)nc3)cc2n1Cc1cc(CO)ccc1OC(F)F (stereo not drawn) [Example 16.5] |
| 1000 to 10000 | Cn1c(=O)c2ccc(-c3cnc(N4CCOCC4)nc3)cc2n1Cc1cc(F)ccc1OC(F)F [Example 1.6] |
| < 1000 | C[C@@H]1CN(c2ncc(-c3ccc4c(=O)n(C)n(Cc5ccccc5OC(F)F)c4c3F)cn2)CCN1C(=O)CO [Example 24.6] |
| 1000 to 10000 | CN1CCC(Nc2ccc(Cl)c(Cn3c4cc(-c5cnc(C(C)(C)O)nc5)ccc4c(=O)n3C)c2)C1=O (stereo not drawn) [Example 109, 1-(2-Chloro-5-((1-methyl-2-oxopyrrolidin-3-yl)amino)benzyl)-6-(2-(2-hydroxypropan-2-yl)pyrimidin-5-yl)-2-methyl-1H-indazol-3(2H)-one] |
| < 1000 | CC(c1cc(F)ccc1F)n1c2cc(-c3cnc(N4CCN(C(=O)CO)[C@H](C)C4)nc3)ccc2c(=O)n1C (stereo partly drawn) [Example 24.7] |
| 1000 to 10000 | Cc1cccc(Cn2c3cc(-c4cnc(N5CCOCC5)nc4)ccc3c(=O)n2C)c1 [Example 1.9] |
| < 1000 | CC(=O)N1CCN(c2ncc(-c3ccc4c(=O)n(C)n(Cc5ccccc5OC(F)F)c4c3)cn2)CC1 [Example 2.3] |
| 1000 to 10000 | Cn1c(=O)c2ccc(-c3cnc(NCCO)nc3)cc2n1Cc1ccccc1OC(F)F [Example 2.12] |
| < 1000 | CC(=O)N1CCN(c2ncc(-c3ccc4c(=O)n(C)n(Cc5cc(Cc6cn[nH]c6)ccc5OC(F)F)c4c3)cn2)C[C@H]1C [Example 110, (R)-1-(5-((1H-Pyrazol-4-yl)methyl)-2-(difluoromethoxy)benzyl)-6-(2-(4-acetyl-3-methylpiperazin-1-yl)pyrimidin-5-yl)-2-methyl-1H-indazol-3(2H)-one] |
